{"source": "patent EP0565593B1", "about": "“REDUCING PESTICIDAL INTERACTIONS IN CROPS” (priority 1990, dated 1992)", "type_in_all_cases": "in vivo", "key": {"Corn [1]": {"system": "Corn", "experiment": "Greenhouse test Procedure VI: biocide and antidote in furrow, herbicide PPI in cover layer (Examples 43-47, 59-61; Tables 42-46, 58-60)", "details": "COUNTER 15G/PURSUIT interaction; Example 47", "text": "This procedure describes interaction among herbicide, biocide and antidote when the herbicide is incorporated in a soil cover layer and the biocide and the antidote are applied in a soil furrow containing crop seed before emergence of the crop. The soil and seeding depth were described in Procedure IV. A first container was designated as an untreated control, a second container was designated as a herbicide control, a third container was designated as a herbicide + biocide control and a fourth container as a herbicide + biocide + antidote test container. The biocide and antidote were formulated as granules. The biocide was applied to the soil furrows of the third and fourth containers at an application rate of 1.1 mg of active compound per cm of row. The antidote was applied to the soil furrow of the fourth container at an application rate of 0.37 mg of active compound per cm of row. A measured amount of the herbicide dispersed or dissolved in acetone was applied to a measured quantity of soil. The quantity of soil treated with the herbicide was thoroughly mixed to incorporate the herbicide. Samples of this soil were used to cover the seed beds of the second, third and fourth containers. For each test series, the seed bed of the first container was likewise covered by a soil layer not treated with herbicide and without biocide or antidote in the soil furrow.\nThe containers were then placed on a bench in a greenhouse. Watering was by subirrigation plus overhead irrigation after the plants emerged. All treatments were run in duplicate. Plant response was observed according to Procedure IV. Variations in this procedure will be noted in the examples.\nIn continuing tests to evaluate the variations of this invention, a series of tests were conducted to determine the efficacy of the above safeners in Examples 39-42 to alleviate corn injury induced by the interaction of various additional commercial sulfonylurea herbicides with COUNTER 15G insecticide. In this example, the tests were conducted according to Procedure VI above. In modifications of that procedure, herbicides were applied to soil samples as acetone/water suspensions, incorporated by shaking in a closed container, with subsamples used to cover furrow-treated 10.2 cm pots. Pots were subirrigated followed by overhead misting on days 6-10.\nThis example was designed to test the safening effect of those above safeners used in this test series to relieve corn injury by negative synergism induced by interaction of COUNTER 15G and three imidazolinone herbicides, i.e., imazaquin and imazapyr (used in the POE tests in Example 41) and AC 263222 (a.i. in CADRE® herbicide). As differing from the tests in Example 41, this test was a PPI test according to Procedure VI described above. Observation of test results (Table 43) were taken thirteen 913) days after in-furrow PPI preparation.\nThis example describes PPI tests to evaluate said test safeners in this series with analogs of the sulfonamide herbicides tested under POE herbicide application procedures described in Example 42. In these tests, conducted according to Procedure VI described above, Herbicide Nos. 20, 22 and 24 were applied PPI with the insecticide and antidote. Observations of tests results were made thirteen days after PPI initiation.\nAn additional three (3) sulfonamide herbicide analogs were tested simultaneously and under the same conditions described in Example 45.\nAnother test of this invention involved the safening effects of the safeners in this series against negative synergy inducted by the interaction of COUNTER 15G and a sulfonylurea herbicide (OUST®), Herbicide No. 13, and PURSUIT, an imidazolinone herbicide, No. 6. Test conditions were the same as those in Examples 43-46. Other procedures for applying herbicidal formulations are as described in Example 42. […]"}, "Corn [2]": {"system": "Corn", "experiment": "Greenhouse test Procedure VII: biocide and antidote in furrow, herbicide POE (Examples 39-42, 48-50, 56-58; Tables 38-41, 47-49, 55-57)", "details": "in-furrow antidote; COUNTER 15G + sulfonamide herbicides; Table 41", "procedure,_shortened": "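Corn seed was planted in greenhouse pots, with COUNTER 15G insecticide plus antidote granules applied in-furrow (e.g. 1.1 + 0.37 mg a.i./cm, or 227 g/305 m with acetone-applied safeners). About five days later, herbicides in water with 0.25% v/v X-77 were track-sprayed post-emergence at 187 L/ha. Plant response was scored eight days afterward, with two to four replicates.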"}, "Corn [3]": {"system": "Corn", "experiment": "Multi-crop greenhouse test, herbicide POE (Examples 62-64; Tables 61-63)", "set-up": "inhibition: dose or concentration left out as unconfirmed", "details": "for inhibition: Zea mays, Table 62, Biocide No. 1 8.96 Kg/Ha, antidote 4.48 Kg/Ha PPI where in label", "procedure": "(§1) Tests according to this invention in various crops indicate widespread application of the invention. In Examples 62-66 below are described tests with a variety of herbicides contacted with COUNTER® 15G in the presence and absence of MON-7400 (Antidote No. 12); MON-13900 (No. 1); MON-4660 (No. 16) and flurazole (No. 16). Those tests were conducted according to Procedures IV or V described above and illustrated further in other foregoing examples. Plants used in all tests were, for crops (as abbreviated in parentheses); cotton (COTT); soybean (SOBE); CORN, grain sorghum (GRSO); wheat (WHEA) and RICE, and the weeds giant foxtail (GIFT) and velvetleaf (VELE). The data in the tables below represent averages of two replications.\n(§2) In this test the crops and weeds were planted 1.3 cm deep in 13.7 cm X 27.7 cm pans containing Dupo silt loam soil. The test safeners were applied in acetone solution and COUNTER 15G as dry granules to soil cover layers and incorporated by shaking in a bag. Treated cover layers were placed on seeded pans which were transferred to greenhouse benches and subirrigated. Herbicide was applied POE six (6) days after PPI initiation and observations of plant injury made ten (10) days later; results are shown in Table 61. The herbicide used in this example was BEACON (No. 8).\n(§3) The test procedure described in Example 62 was repeated using ACCENT® (Herbicide No. 7) as the herbicide; the biocide and safeners were the same."}, "cotton (COTT)": {"system": "cotton (COTT)", "experiment": "Multi-crop greenhouse test, COUNTER 15G and safener PPI, herbicide POE (Examples 62-64; Tables 61-63)", "set-up": "dose or concentration left out as unconfirmed", "details": "Gossypium hirsutum, Table 62, Biocide No. 1 8.96 Kg/Ha, antidote 4.48 Kg/Ha PPI where in label", "procedure": "as §1, §2, §3"}, "Giant foxtail (GIFT)": {"system": "Giant foxtail (GIFT)", "experiment": "Multi-crop greenhouse test, herbicide POE (Examples 62-64; Tables 61-63)", "set-up": "dose or concentration left out as unconfirmed", "details": "Setaria faberi, Table 62, Biocide No. 1 8.96 Kg/Ha, antidote 4.48 Kg/Ha PPI where in label", "procedure": "as §1, §2, §3"}, "RICE": {"system": "RICE", "experiment": "Multi-crop greenhouse test, herbicide POE (Examples 62-64; Tables 61-63)", "set-up": "dose or concentration left out as unconfirmed", "details": "Oryza sativa, Table 62, Biocide No. 1 8.96 Kg/Ha, antidote 4.48 Kg/Ha PPI where in label", "procedure": "as §1, §2, §3"}, "Velvetleaf (VELE)": {"system": "Velvetleaf (VELE)", "experiment": "Multi-crop greenhouse test, herbicide POE (Examples 62-64; Tables 61-63)", "set-up": "dose or concentration left out as unconfirmed", "details": "Abutilon theophrasti, Table 62, Biocide No. 1 8.96 Kg/Ha, antidote 4.48 Kg/Ha PPI where in label", "procedure": "as §1, §2, §3"}, "grain sorghum (GRSO)": {"system": "grain sorghum (GRSO)", "experiment": "Multi-crop greenhouse test, herbicide POE (Examples 62-64; Tables 61-63)", "set-up": "dose or concentration left out as unconfirmed", "details": "Biocide No. 1 8.96 Kg/Ha, antidote 4.48 Kg/Ha PPI where in label", "procedure": "as §1, §2, §3"}, "soybean (SOBE)": {"system": "soybean (SOBE)", "experiment": "Multi-crop greenhouse test, herbicide POE (Examples 62-64; Tables 61-63)", "set-up": "dose or concentration left out as unconfirmed", "details": "Glycine max, Table 62, Biocide No. 1 8.96 Kg/Ha, antidote 4.48 Kg/Ha PPI where in label", "procedure": "as §1, §2, §3"}, "wheat (WHEA)": {"system": "wheat (WHEA)", "experiment": "Multi-crop greenhouse test, herbicide POE (Examples 62-64; Tables 61-63)", "set-up": "dose or concentration left out as unconfirmed", "details": "Triticum aestivum, Table 62, Biocide No. 1 8.96 Kg/Ha, antidote 4.48 Kg/Ha PPI where in label", "procedure": "as §1, §2, §3"}, "[4]": {"details": "Herb. No. 7 (ACCENT) 0.0044 Kg/Ha POE"}, "[5]": {"details": "Herb. No. 7 (ACCENT) 0.035 Kg/Ha POE"}, "[6]": {"details": "Herb. No. 7 (ACCENT) 0.28 Kg/Ha POE"}}, "data": [{"smiles": "N#CCOc1ccc(Cl)c2cccnc12", "note": "[Antidote No. 33, Acetonitrile, [(5-chloro-8-quinolinyl)oxy]-]", "values": [{"measurement": "safening", "setting": "Corn [1]", "value": "good activity"}, {"measurement": "corn injury", "setting": "Corn [2]", "value": "significantly reduced"}, {"measurement": "corn injury", "setting": "Corn [3]; COUNTER 15G and BEACON, Example 62", "value": "effectively reduced"}]}, {"smiles": "COc1cc(OC)nc(NC(=O)NS(=O)(=O)c2ncccc2C(=O)N(C)C)n1", "note": "[Herb. No. 7]", "values": [{"measurement": "inhibition", "setting": "cotton (COTT); [4]", "value": 25, "unit": "%"}, {"measurement": "inhibition", "setting": "cotton (COTT); [5]", "value": 40, "unit": "%"}, {"measurement": "inhibition", "setting": "cotton (COTT); [6]", "value": 50, "unit": "%"}, {"measurement": "inhibition", "setting": "Corn [3]; [4]", "value": 0, "unit": "%"}, {"measurement": "inhibition", "setting": "Corn [3]; [5]", "value": 0, "unit": "%"}, {"measurement": "inhibition", "setting": "Corn [3]; [6]", "value": 0, "unit": "%"}, {"measurement": "inhibition", "setting": "Giant foxtail (GIFT); [4]", "value": 65, "unit": "%"}, {"measurement": "inhibition", "setting": "Giant foxtail (GIFT); [5]", "value": 70, "unit": "%"}, {"measurement": "inhibition", "setting": "Giant foxtail (GIFT); [6]", "value": 75, "unit": "%"}, {"measurement": "inhibition", "setting": "RICE; [4]", "value": 20, "unit": "%"}, {"measurement": "inhibition", "setting": "RICE; [5]", "value": 40, "unit": "%"}, {"measurement": "inhibition", "setting": "RICE; [6]", "value": 50, "unit": "%"}, {"measurement": "inhibition", "setting": "Velvetleaf (VELE); [4]", "value": 40, "unit": "%"}, {"measurement": "inhibition", "setting": "Velvetleaf (VELE); [5]", "value": 60, "unit": "%"}, {"measurement": "inhibition", "setting": "Velvetleaf (VELE); [6]", "value": 65, "unit": "%"}, {"measurement": "inhibition", "setting": "grain sorghum (GRSO); Table 62, Herb. No. 7 (ACCENT) 0.0044 Kg/Ha POE", "value": 60, "unit": "%"}, {"measurement": "inhibition", "setting": "grain sorghum (GRSO); Table 62, Herb. No. 7 (ACCENT) 0.035 Kg/Ha POE", "value": 65, "unit": "%"}, {"measurement": "inhibition", "setting": "grain sorghum (GRSO); Table 62, Herb. No. 7 (ACCENT) 0.28 Kg/Ha POE", "value": 75, "unit": "%"}, {"measurement": "inhibition", "setting": "soybean (SOBE); [4]", "value": 10, "unit": "%"}, {"measurement": "inhibition", "setting": "soybean (SOBE); [5]", "value": 20, "unit": "%"}, {"measurement": "inhibition", "setting": "soybean (SOBE); [6]", "value": 40, "unit": "%"}, {"measurement": "inhibition", "setting": "wheat (WHEA); [4]", "value": 35, "unit": "%"}, {"measurement": "inhibition", "setting": "wheat (WHEA); [5]", "value": 45, "unit": "%"}, {"measurement": "inhibition", "setting": "wheat (WHEA); [6]", "value": 60, "unit": "%"}]}]}
